Patent US10647680B2, “Urea compound, preparation method therefor and medical use thereof” (Ancureall Pharmaceutical (Shanghai) Co., Ltd., priority 2016, dated 2020)

Legend:
Format in all cases: cell-based
[1] = test system: HL-60 (FLT3 wild type); test: In vitro growth inhibition (GI50), HL-60; conditions: Homo sapiens, Cell lines of leukemia, read-out: GI 50 HL60 FLT3 (WT)
Method in brief: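 Cells in RPMI1640 with 10% FBS, seeded at 5–10×10^4 cells/mL, exposed next day to compound at 5,000 nM down to 0.01 nM (2- or 10-fold dilutions, ≤1% solvent) for 3–5 days at 37 °C. CCK8 absorbance at 450 nm, growth rate relative to pre-treatment and solvent controls, GI50 from concentration–growth curve.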

[2] = test system: NCI-H1975 (EGFR L858R/T790M); test: In vitro growth inhibition (GI50), NCI-H1975; conditions: Homo sapiens
Text: (§1) Tumor cell line is an effective cell model for studying the inhibition of tumor cell growth or proliferation in vitro. In the present invention, a representative tumor cell line was selected to determine the cell growth inhibition activity of the present compound. All cell lines used were from ATCC, DSMZ, and the Cell Bank of the Chinese Academy of Sciences. Cell culture conditions and methods were in accordance with the requirements of each cell line. Cells were subcultured in vitro for no more than 3 passages each time, and as required, single-clone purification and identification of cell lines could be carried out.
(§2) The cell culture media used were RPMI1640 (Gibco), MEM (Gibco), McCOY'S5A (Gibco), and IMDM (Gibco). The complete medium was prepared by supplement with 5˜20% fetal calf serum (Gibco), 1% double-antibiotics (10000 units/mL penicillin and 10000 units/mL), 2 mM glutamine or 1 mM sodium pyruvate, respectively.
Human epidermal cancer cell line A431 (EGFR WT, amplification and high expression, from Shanghai Cell Bank of Chinese Academy of Sciences and ATCC), human lung cancer cell line NCI-H292 (EGFR WT, purchased from Shanghai Cell Bank of Chinese Academy of Sciences), NSCLC cell lines PC-9 and HCC827 (EGFR exon19 E746-A750 deletion, two cell lines are sensitive to the first-generation EGFR PTK inhibitor), NSCLC cell line NCI-H1975 (EGFR L858R/T790M and the first-generation EGFR inhibitor resistance, ATCC) were cultured with 1×RPMI1640 complete medium (supplement with 10% FBS), respectively.
(§3) Adherent cells were digested with 0.25% pancreatin-EDTA (Gibco). The suspension cells were collected by centrifugation. The supernatant was discarded and the cell pellet was resuspended and counted. Different cell concentrations (5˜10×10^4 cells/mL) were prepared according to the growth cycle of each cell line and then seeded on a 96-well plate (Corning), 100 μL/well. The cells were incubated overnight at 37° C., 5% CO2. The compounds were added to the cells on the second day with 2 wells in parallel. The final concentration of organic solvent shall not exceed 1%. The cells were continually incubated for 3 to 5 days, and then subjected to MTT assay.
(§4) The compound of the present invention and the control compound were dissolved in DMSO (Sigma) respectively, with the purity of more than 98%. The compound was stored in a concentration of 10 mM at −20° C. and diluted to 2- or 10-fold series prior to use.
(§5) Dojindo CCK8 reagent kit was used as MTT assay. THERMO […] FC meter was used as microplate reader.
(§6) For adherent cells, culture medium was removed and immediately replaced with the fresh prepared medium which contains 10% CCK8 reagent (100 μL/well). For the suspension cells, CCK8 was directly added to 10% of the final concentration. The cells were continually incubated for 1˜4 h. When a dark yellow color could be observed in the solvent control wells, the absorbance value at OD450 nm was measured and the cell growth rate was calculated according to the following formula: Cell Growth Rate (%)=100*(T−T0)/(C−T0) T=optical density of drug treatment cell well—optical density of blank control well; T0=optical density of cell well before drug treatment—optical density of blank control well; C=optical density of cell well of solvent control group—optical density of blank control well. The concentration value of 50% inhibition of cell growth (GI50) was calculated according to the drug concentration and cell growth rate curve. The experiment was independently repeated 1˜3 times, and subject to biological statistical analysis. 4. Experimental Results
Tumor cell growth inhibition test was performed by selecting representative compounds (compounds 4, 11, 12, 16, 27, 68, 71, 77, 79, 89 and 116 of the present invention). The initial concentration of the compound was 5,000 nM, then it was serially diluted by 2-fold or 10-fold to 0.01 nM. The GI50 value of each test compound was calculated according to the GI50 assay and calculation method. […]

[3] = test system: H1299 (NRAS Q61K mutant type); test: In vitro growth inhibition (GI50), H1299; conditions: Homo sapiens, NCI-H1299
Text: as §1, §2
Human large cell lung cancer cell NCI-H460 (KRAS […] mutant type, ATCC), human non-small cell lung cancer cell line H1299 (NRAS Q61K mutant type, ATCC), human melanoma cell line A375 (BRAF V600E mutant type, Shanghai Cell Bank of Chinese Academy of Sciences), human colon cancer cell line HCT116 (KRAS G13D mutant type, Shanghai Cell Bank, Chinese Academy of Sciences) were cultured in a complete medium of 1×RPMI1640 (10% FBS), respectively. Human non-small cell lung cancer cells A549 (KRAS G12S mutant type, Shanghai Cell Bank, Chinese Academy of Sciences) were cultured in a complete medium of 1× Ham's supplemented with 10% FBS, 1% double antibody, and 2 mM glutamine.
as §3, §4, §5, §6
Tumor cell growth inhibition test was performed by selecting representative compounds (compounds 4, 11, 12, 16, 27, 68, 71, 77, 79, 89 and 116 of the present invention). The initial concentration of the compound was 5,000 nM, then it was serially diluted by 2-fold or 10-fold to 0.01 nM. […]

| Structure (SMILES) | GI50 [1] | GI50 [2] | GI50 [3] |
| --- | --- | --- | --- |
| COCCOc1ccc2c(c1)ncn2-c1ccc(NC(=O)Nc2cc(C(C)(C)C)n[nH]2)cc1 [Compound 77, 1-(5-tert-butyl-2H-pyrazol-3-yl)-3-{4-[5-(2-methoxyl-ethoxyl)-benzimidazol-1-yl]-phenyl}-urea] | > 1000 nM | > 2500 nM | > 2500 nM |
| CC(C)(C)c1cc(NC(=O)Nc2ccc(-n3cnc4cc(O)ccc43)cc2)no1 [Compound 4, 1-(5-tert-butyl-isoxazol-3-yl)-3-[4-(5-hydroxy-benzimidazol-1-yl)-phenyl]-urea] | 100 to 1000 nM | > 2500 nM | > 2500 nM |
| CC(C)(C)c1cc(NC(=O)Nc2ccc(-n3cnc4cc(OCCN5CCOCC5)ccc43)cc2)no1 [Compound 16, 1-(5-tert-butyl-isoxazol-3-yl)-3-{4-[5-(2-morpholin-4-yl-ethoxyl)-benzimidazol-1-yl]-phenyl}-urea] | > 1000 nM | > 2500 nM | > 2500 nM |
| CC(C)(C)c1cc(N)n(C(=O)Nc2ccc(-n3cnc4ccccc43)cc2)n1 [Compound 116, 5-amino-3-tert-butyl-pyrazol-1-carboxylic acid (4-benzimidazol-1-yl-phenyl)-amide] | > 1000 nM | > 2500 nM | > 2500 nM |
| CC(C)(C)c1cc(NC(=O)Nc2ccc(-n3cnc4cc(OCCO)ccc43)cc2)no1 [Compound 11, 1-(5-tert-butyl-isoxazol-3-yl)-3-{4-[5-(2-hydroxy-ethoxyl)-benzimidazol-1-yl]-phenyl]-urea] | > 1000 nM | > 2500 nM | > 2500 nM |
| CC(C)(C)c1cc(NC(=O)Nc2ccc(-n3cnc4ccc(OCCN5CCOCC5)cc43)cc2)no1 [Compound 27, 1-(5-tert-butyl-isoxazol-3-yl)-3-{4-[6-(2morpholin-4-yl-ethoxyl)-benzimidazol-1-yl]-phenyl}-urea] | 100 to 1000 nM | > 2500 nM | > 2500 nM |

Second part, the compound after the results:

| GI50 [1] | GI50 [2] | GI50 [3] | Structure (SMILES) |
| --- | --- | --- | --- |
| > 1000 nM | > 2500 nM | > 2500 nM | CC(C)(C)c1cc(NC(=O)Nc2ccc(-n3cnc4cc(OCCO)ccc43)cc2)[nH]n1 [Compound 79, 1-(5-tert-butyl-2H-pyrazol-3-yl)-3-{4-[5-(2-hydroxy-ethoxyl)-benzimidazol-1-yl]-phenyl]urea] |
| > 1000 nM | > 2500 nM | > 2500 nM | CC(C)(C)c1cc(NC(=O)Nc2ccc(-n3cnc4cc(OCCN5CCOCC5)ccc43)cc2)[nH]n1 [Compound 89, 1-(5-tert-butyl-2H-pyrazol-3-yl)-3-{4-[5-(2-morpholin-4-yl-ethoxyl)-benzimidazol-1-yl]-phenyl}-urea] |
| > 1000 nM | > 2500 nM | > 2500 nM | CC(C)(C)c1cc(NC(=O)Nc2ccc(-n3cnc4ccccc43)cc2)[nH]n1 [Compound 68, 1-(4-benzimidazol-1-yl-phenyl)-3-(5-tert-butyl-2H-pyrazol-3-yl)-urea] |
| > 1000 nM | > 2500 nM | > 2500 nM | COc1ccc2c(c1)ncn2-c1ccc(NC(=O)Nc2cc(C(C)(C)C)n[nH]2)cc1 [Compound 71, 1-(5-tert-butyl-2H-pyrazol-3-yl)-3-[4-(5-methoxyl-benzimidazol-1-yl)-phenyl]-urea] |
